Test results: ChEMBL document CHEMBL1201862, “PubChem BioAssay data set” (2004)
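These data come from cells grown in 96-well plates and exposed to compound for 48 hours at five concentrations. GI50 marks 50% less growth.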 Calls of active or inactive are those of the source. Cut-off read from the data, not from the text of the source: active = GI50 up to about 1.1 µM and inactive = higher.

Legend:
Experiment in all cases: DTP human tumour cell line panel, 48 h
SN12C = test system: SN12C
NCI-H23 = test system: NCI-H23
CAKI-1 = test system: CAKI-1
HT-29 = test system: HT-29
MDA-MB-231 = test system: MDA-MB-231
MOLT-4 = test system: MOLT-4
Malme-3M = test system: Malme-3M
786-0 = test system: 786-0
HOP-62 = test system: HOP-62
UO-31 = test system: UO-31
HCC 2998 = test system: HCC 2998
MDA-MB-435 = test system: MDA-MB-435
NCI-H522 = test system: NCI-H522
MCF7 = test system: MCF7
SW-620 = test system: SW-620
SK-MEL-5 = test system: SK-MEL-5
OVCAR-5 = test system: OVCAR-5
NCI-H460 = test system: NCI-H460
CCRF-CEM = test system: CCRF-CEM
KM12 = test system: KM12
ACHN = test system: ACHN
Hs-578T = test system: Hs-578T
OVCAR-4 = test system: OVCAR-4
HCT-116 = test system: HCT-116
TK-10 = test system: TK-10
OVCAR-8 = test system: OVCAR-8
U-251 = test system: U-251
SK-MEL-28 = test system: SK-MEL-28
RXF 393 = test system: RXF 393
SNB-19 = test system: SNB-19
HL-60 = test system: HL-60
NCI/ADR-RES = test system: NCI/ADR-RES
MDA-N = test system: MDA-N
SF-539 = test system: SF-539
NCI-H226 = test system: NCI-H226
SF-295 = test system: SF-295
BT-549 = test system: BT-549
HOP-92 = test system: HOP-92
EKVX = test system: EKVX
HCT-15 = test system: HCT-15
SF-268 = test system: SF-268
SR = test system: SR
UACC-257 = test system: UACC-257
DU-145 = test system: DU-145
A498 = test system: A498
PC-3 = test system: PC-3
OVCAR-3 = test system: OVCAR-3
SNB-75 = test system: SNB-75
IGROV-1 = test system: IGROV-1
A549 = test system: A549
K562 = test system: K562
LOX IMVI = test system: LOX IMVI
COLO 205 = test system: COLO 205
RPMI-8226 = test system: RPMI-8226
M14 = test system: M14
SK-OV-3 = test system: SK-OV-3
SK-MEL-2 = test system: SK-MEL-2
T47D = test system: T47D

## O=C(NCc1ccccc1)c1c(O)nc2ccccc2c1O
SN12C
  GI50: > 100 µM (inactive)
NCI-H23
  GI50: > 100 µM (inactive)
CAKI-1
  GI50: > 100 µM (inactive)
HT-29
  GI50: > 100 µM (inactive)
MDA-MB-231
  GI50: > 100 µM (inactive)
MOLT-4
  GI50: > 100 µM (inactive)
Malme-3M
  GI50: > 100 µM (inactive)
786-0
  GI50: > 100 µM (inactive)
HOP-62
  GI50: > 100 µM (inactive)
UO-31
  GI50: > 100 µM (inactive)
HCC 2998
  GI50: > 100 µM (inactive)
MDA-MB-435
  GI50: > 100 µM (inactive)
NCI-H522
  GI50: > 100 µM (inactive)
MCF7
  GI50: > 100 µM (inactive)
SW-620
  GI50: > 100 µM (inactive)
SK-MEL-5
  GI50: > 100 µM (inactive)
OVCAR-5
  GI50: > 100 µM (inactive)
NCI-H460
  GI50: > 100 µM (inactive)
CCRF-CEM
  GI50: > 100 µM (inactive)
KM12
  GI50: > 100 µM (inactive)
ACHN
  GI50: > 100 µM (inactive)
Hs-578T
  GI50: 40.7 µM (inactive)
OVCAR-4
  GI50: > 100 µM (inactive)
HCT-116
  GI50: > 100 µM (inactive)
TK-10
  GI50: > 100 µM (inactive)
OVCAR-8
  GI50: > 100 µM (inactive)
U-251
  GI50: > 100 µM (inactive)
SK-MEL-28
  GI50: > 100 µM (inactive)
RXF 393
  GI50: > 100 µM (inactive)
SNB-19
  GI50: > 100 µM (inactive)
HL-60
  GI50: > 100 µM (inactive)
NCI/ADR-RES
  GI50: > 100 µM (inactive)
MDA-N
  GI50: > 100 µM (inactive)
SF-539
  GI50: > 100 µM (inactive)
NCI-H226
  GI50: > 100 µM (inactive)
SF-295
  GI50: > 100 µM (inactive)
BT-549
  GI50: > 100 µM (inactive)
HOP-92
  GI50: > 100 µM (inactive)
EKVX
  GI50: > 100 µM (inactive)
HCT-15
  GI50: > 100 µM
SF-268
  GI50: > 100 µM (inactive)
SR
  GI50: > 100 µM (inactive)
UACC-257
  GI50: > 100 µM (inactive)
DU-145
  GI50: > 100 µM (inactive)
A498
  GI50: > 100 µM (inactive)
PC-3
  GI50: > 100 µM (inactive)
OVCAR-3
  GI50: > 100 µM (inactive)
SNB-75
  GI50: > 100 µM (inactive)
IGROV-1
  GI50: > 100 µM (inactive)
A549
  GI50: > 100 µM (inactive)
K562
  GI50: > 100 µM (inactive)
LOX IMVI
  GI50: > 100 µM (inactive)
COLO 205
  GI50: > 100 µM (inactive)
RPMI-8226
  GI50: > 100 µM (inactive)

## COP(=O)(CP(=O)(OC)OCCC(C)CCC=C(C)C)OC (stereo not given)
SN12C
  GI50: > 100 µM (inactive)
NCI-H23
  GI50: > 100 µM (inactive)
CAKI-1
  GI50: > 100 µM (inactive)
MDA-MB-231
  GI50: 19.1 µM (inactive)
MOLT-4
  GI50: > 100 µM (inactive)
Malme-3M
  GI50: > 100 µM (inactive)
786-0
  GI50: > 100 µM (inactive)
HOP-62
  GI50: 69.7 µM (inactive)
M14
  GI50: > 100 µM (inactive)
UO-31
  GI50: > 100 µM (inactive)
HCC 2998
  GI50: > 100 µM (inactive)
MDA-MB-435
  GI50: > 100 µM (inactive)
NCI-H522
  GI50: > 100 µM (inactive)
MCF7
  GI50: > 100 µM (inactive)
SW-620
  GI50: > 100 µM (inactive)
SK-MEL-5
  GI50: > 100 µM (inactive)
OVCAR-5
  GI50: > 100 µM (inactive)
NCI-H460
  GI50: > 100 µM (inactive)
CCRF-CEM
  GI50: > 100 µM (inactive)
KM12
  GI50: > 100 µM (inactive)
ACHN
  GI50: > 100 µM (inactive)
OVCAR-4
  GI50: > 100 µM (inactive)
HCT-116
  GI50: > 100 µM (inactive)
TK-10
  GI50: > 100 µM (inactive)
OVCAR-8
  GI50: > 100 µM (inactive)
U-251
  GI50: 26.7 µM (inactive)
SK-MEL-28
  GI50: > 100 µM (inactive)
RXF 393
  GI50: > 100 µM (inactive)
SNB-19
  GI50: > 100 µM (inactive)
NCI/ADR-RES
  GI50: > 100 µM (inactive)
SK-OV-3
  GI50: > 100 µM (inactive)
MDA-N
  GI50: > 100 µM (inactive)
SF-539
  GI50: > 100 µM (inactive)
NCI-H226
  GI50: > 100 µM (inactive)
SK-MEL-2
  GI50: > 100 µM (inactive)
SF-295
  GI50: > 100 µM (inactive)
BT-549
  GI50: > 100 µM (inactive)
EKVX
  GI50: > 100 µM (inactive)
HCT-15
  GI50: > 100 µM
SF-268
  GI50: > 100 µM (inactive)
UACC-257
  GI50: > 100 µM (inactive)
A498
  GI50: > 100 µM (inactive)
T47D
  GI50: > 100 µM (inactive)
PC-3
  GI50: > 100 µM (inactive)
OVCAR-3
  GI50: > 100 µM (inactive)
SNB-75
  GI50: > 100 µM (inactive)
IGROV-1
  GI50: > 100 µM (inactive)
A549
  GI50: > 100 µM (inactive)
K562
  GI50: > 100 µM (inactive)
LOX IMVI
  GI50: > 100 µM (inactive)
COLO 205
  GI50: > 100 µM (inactive)
